For one assay, the target named is T1, Prolyl endopeptidase (Homo sapiens, UniProt P48147).
T1 sequence (P48147 whole entry): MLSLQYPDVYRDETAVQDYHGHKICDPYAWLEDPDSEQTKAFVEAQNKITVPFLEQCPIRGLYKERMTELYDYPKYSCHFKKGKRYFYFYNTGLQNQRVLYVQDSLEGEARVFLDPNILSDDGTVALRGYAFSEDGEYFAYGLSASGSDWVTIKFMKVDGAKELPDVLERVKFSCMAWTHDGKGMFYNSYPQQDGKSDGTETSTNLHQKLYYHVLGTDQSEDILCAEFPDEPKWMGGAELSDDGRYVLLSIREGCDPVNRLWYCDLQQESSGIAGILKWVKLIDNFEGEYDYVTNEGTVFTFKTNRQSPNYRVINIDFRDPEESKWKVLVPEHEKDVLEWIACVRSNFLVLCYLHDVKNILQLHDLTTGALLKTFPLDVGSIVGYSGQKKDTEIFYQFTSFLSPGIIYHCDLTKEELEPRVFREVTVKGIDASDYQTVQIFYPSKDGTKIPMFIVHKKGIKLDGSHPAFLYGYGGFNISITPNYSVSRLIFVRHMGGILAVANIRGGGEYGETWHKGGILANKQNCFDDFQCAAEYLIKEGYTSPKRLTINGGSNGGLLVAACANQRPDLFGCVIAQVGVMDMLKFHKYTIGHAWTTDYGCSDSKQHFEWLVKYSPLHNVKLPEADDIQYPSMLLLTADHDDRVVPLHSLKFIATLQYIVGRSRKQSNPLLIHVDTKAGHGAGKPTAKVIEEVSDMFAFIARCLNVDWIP
The experiment in a line: Inhibition of PPCE.

The next assay addresses Dipeptidyl peptidase 2 (Homo sapiens, UniProt Q9UHL4). The experiment in a line: Inhibition of DPP2.
Assay [1] in a line: Antiproliferative activity against T cells. To be noted: T-cell.
A further assay concerns the target Dipeptidyl peptidase 4 (Homo sapiens, UniProt P27487). Kind of assay: Inhibition of human plasma DPP4. Format: cell-free.
The target of the next assay is Dipeptidyl peptidase 8 (Homo sapiens, UniProt Q6V1X1). The experiment in a line: Inhibition of DPP8.
Dipeptidyl peptidase 8, sequence (Q6V1X1 whole entry): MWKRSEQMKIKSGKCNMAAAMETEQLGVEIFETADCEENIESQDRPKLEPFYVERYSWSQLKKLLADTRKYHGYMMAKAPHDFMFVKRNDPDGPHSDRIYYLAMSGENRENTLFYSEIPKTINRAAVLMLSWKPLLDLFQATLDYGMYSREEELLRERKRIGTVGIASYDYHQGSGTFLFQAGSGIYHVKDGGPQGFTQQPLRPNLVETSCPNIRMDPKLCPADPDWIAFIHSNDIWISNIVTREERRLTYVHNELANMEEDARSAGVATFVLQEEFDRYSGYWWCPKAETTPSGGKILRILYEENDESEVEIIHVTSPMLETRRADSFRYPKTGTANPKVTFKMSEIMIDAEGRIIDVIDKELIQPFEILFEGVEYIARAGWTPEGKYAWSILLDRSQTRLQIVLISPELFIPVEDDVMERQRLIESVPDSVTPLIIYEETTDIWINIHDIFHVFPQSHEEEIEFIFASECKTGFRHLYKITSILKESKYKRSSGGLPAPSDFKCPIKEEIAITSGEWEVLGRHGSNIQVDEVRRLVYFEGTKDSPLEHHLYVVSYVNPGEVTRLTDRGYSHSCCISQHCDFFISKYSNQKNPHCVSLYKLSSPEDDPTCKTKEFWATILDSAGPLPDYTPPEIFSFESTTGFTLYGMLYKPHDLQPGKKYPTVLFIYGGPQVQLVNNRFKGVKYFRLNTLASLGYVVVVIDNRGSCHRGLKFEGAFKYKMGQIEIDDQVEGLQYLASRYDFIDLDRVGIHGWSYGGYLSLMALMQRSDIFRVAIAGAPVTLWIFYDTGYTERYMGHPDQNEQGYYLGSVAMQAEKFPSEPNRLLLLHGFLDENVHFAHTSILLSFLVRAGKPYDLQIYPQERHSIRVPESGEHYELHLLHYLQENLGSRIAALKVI
For the next assay, the target named is Dipeptidyl peptidase 9 (Homo sapiens, UniProt Q86TI2). Kind of assay: Inhibition of DPP9.
Dipeptidyl peptidase 9, sequence (Q86TI2 whole entry): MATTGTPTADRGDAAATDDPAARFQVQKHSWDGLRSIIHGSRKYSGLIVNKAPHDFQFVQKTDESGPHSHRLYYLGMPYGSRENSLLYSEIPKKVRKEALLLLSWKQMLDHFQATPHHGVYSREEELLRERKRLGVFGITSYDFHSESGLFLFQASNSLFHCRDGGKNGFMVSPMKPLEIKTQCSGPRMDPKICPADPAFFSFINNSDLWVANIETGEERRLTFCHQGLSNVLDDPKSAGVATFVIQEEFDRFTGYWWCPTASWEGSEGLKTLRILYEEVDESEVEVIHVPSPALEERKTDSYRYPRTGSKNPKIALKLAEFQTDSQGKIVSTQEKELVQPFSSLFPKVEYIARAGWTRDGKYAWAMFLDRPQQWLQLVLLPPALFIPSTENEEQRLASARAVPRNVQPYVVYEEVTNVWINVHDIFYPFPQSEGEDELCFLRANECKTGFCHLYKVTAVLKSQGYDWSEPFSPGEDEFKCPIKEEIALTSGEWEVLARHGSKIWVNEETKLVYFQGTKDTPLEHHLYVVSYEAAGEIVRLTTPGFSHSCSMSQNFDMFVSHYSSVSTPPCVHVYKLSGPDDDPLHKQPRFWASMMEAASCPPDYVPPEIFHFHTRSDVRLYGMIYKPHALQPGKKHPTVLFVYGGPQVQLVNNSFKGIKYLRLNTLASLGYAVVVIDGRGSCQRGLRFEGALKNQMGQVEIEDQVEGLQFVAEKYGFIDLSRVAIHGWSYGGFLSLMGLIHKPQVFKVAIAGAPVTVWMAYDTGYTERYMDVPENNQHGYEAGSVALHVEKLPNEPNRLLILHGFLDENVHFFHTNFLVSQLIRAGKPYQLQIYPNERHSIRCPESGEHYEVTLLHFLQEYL

Structures are written as SMILES.

In general, IC50 refers to the point on the concentration scale where inhibition reaches its midpoint.

Dipeptidyl peptidase 4, sequence (P27487 whole entry): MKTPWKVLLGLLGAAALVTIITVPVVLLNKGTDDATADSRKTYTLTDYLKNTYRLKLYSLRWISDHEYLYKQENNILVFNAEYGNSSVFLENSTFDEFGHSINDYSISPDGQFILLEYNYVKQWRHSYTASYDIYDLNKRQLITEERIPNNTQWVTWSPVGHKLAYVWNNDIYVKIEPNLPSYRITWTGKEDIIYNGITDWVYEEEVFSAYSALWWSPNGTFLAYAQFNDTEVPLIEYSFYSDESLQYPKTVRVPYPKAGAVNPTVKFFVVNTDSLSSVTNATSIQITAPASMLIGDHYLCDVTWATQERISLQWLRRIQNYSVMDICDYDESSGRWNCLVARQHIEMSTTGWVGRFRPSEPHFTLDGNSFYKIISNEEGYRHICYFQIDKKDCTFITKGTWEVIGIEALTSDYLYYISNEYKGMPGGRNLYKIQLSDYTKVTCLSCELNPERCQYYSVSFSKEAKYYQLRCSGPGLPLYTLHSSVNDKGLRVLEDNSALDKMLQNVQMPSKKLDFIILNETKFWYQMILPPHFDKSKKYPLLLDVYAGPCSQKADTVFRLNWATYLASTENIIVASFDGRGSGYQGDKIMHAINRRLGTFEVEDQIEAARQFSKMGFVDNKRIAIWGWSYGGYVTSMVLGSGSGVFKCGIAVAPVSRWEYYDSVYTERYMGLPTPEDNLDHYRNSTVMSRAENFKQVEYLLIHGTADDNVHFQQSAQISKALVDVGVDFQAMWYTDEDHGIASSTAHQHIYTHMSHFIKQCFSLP

On to `N#C[C@@H]1C[C@H](F)CN1C(=O)CN[C@H]1[C@@H]2CN(c3nccc(C(F)(F)F)n3)C[C@@H]21`, for which the half-inhibitory concentration (IC50) was > 100 µM against Prolyl endopeptidase and 2.2 µM at Dipeptidyl peptidase 2.
Taken in the same sequence, the figures for `N#Cc1cc(F)cc(N2C[C@@H]3[C@H](C2)[C@H]3NCC(=O)N2C[C@@H](F)C[C@H]2C#N)c1` were 9.15 µM and 1.8 µM.
As to `CC(=O)c1ccc(N2C[C@@H]3[C@H](C2)[C@H]3NCC(=O)N2C[C@@H](F)C[C@H]2C#N)cc1`, the IC50 was > 10 µM in assay [1] and 9 µM against Dipeptidyl peptidase 2.
Regarding `N#C[C@@H]1C[C@H](F)CN1C(=O)CN[C@H]1[C@@H]2CN(c3cnc4ccccc4n3)C[C@@H]21`, the IC50 on Prolyl endopeptidase is > 10 µM; on Dipeptidyl peptidase 2, 0.226 µM.
Taken in the same sequence, the figures for `N#Cc1c(F)cc(F)cc1N1C[C@@H]2[C@H](C1)[C@H]2NCC(=O)N1C[C@@H](F)C[C@H]1C#N` were 8.7 µM and 3.9 µM.
Take `N#C[C@@H]1CCCN1C(=O)CNC12CC3CC(CC(O)(C3)C1)C2` [VILDAGLIPTIN]: the IC50 in assay [1] is > 10 µM.
`N#C[C@@H]1C[C@H](F)CN1C(=O)CN[C@H]1[C@@H]2CN(c3ccc(C(F)(F)F)cn3)C[C@@H]21`: the IC50 was > 100 µM on Prolyl endopeptidase and 4 µM against Dipeptidyl peptidase 2.
As for `N#C[C@@H]1C[C@H](F)CN1C(=O)CN[C@H]1[C@@H]2CN(c3ccc(Cl)cn3)C[C@@H]21`, the IC50 was 9.04 µM on Prolyl endopeptidase, > 10 µM in assay [1] and 8.75 µM on Dipeptidyl peptidase 2.
In the case of `N#Cc1ccc(N2C[C@@H]3[C@H](C2)[C@H]3NCC(=O)N2C[C@@H](F)C[C@H]2C#N)c(F)c1`, the 50% inhibitory concentration (IC50) against Prolyl endopeptidase is > 10 µM; at Dipeptidyl peptidase 2, 2.76 µM.
Regarding `N#Cc1ccc(N2C[C@@H]3[C@H](C2)[C@H]3NCC(=O)N2C[C@@H](F)C[C@H]2C#N)c(C(F)(F)F)c1`, the 50% inhibitory concentration (IC50) at Prolyl endopeptidase was 2.1 µM; at Dipeptidyl peptidase 2, 1 µM.
Taken in the same sequence, the figures for `N#Cc1cccc(F)c1N1C[C@@H]2[C@H](C1)[C@H]2NCC(=O)N1C[C@@H](F)C[C@H]1C#N` were > 10 µM and 1.3 µM.
In the case of `N#C[C@@H]1C[C@H](F)CN1C(=O)CN[C@H]1[C@@H]2CN(c3nc4ccccc4o3)C[C@@H]21`, the concentration for half-maximal inhibition (IC50) on Prolyl endopeptidase was > 100 µM; on Dipeptidyl peptidase 2, 5.1 µM.
In the case of `N#Cc1ccc(N2C[C@@H]3[C@H](C2)[C@H]3NCC(=O)N2CCSC2)nc1`, the IC50 on Dipeptidyl peptidase 4 was > 10 µM.
With `N#C[C@@H]1C[C@H](F)CN1C(=O)CN[C@H]1[C@@H]2CN(c3nccs3)C[C@@H]21`, the results for the IC50 at Prolyl endopeptidase and against Dipeptidyl peptidase 2 were > 100 µM and 11 µM, respectively.
Turning to `N#Cc1cc(F)ccc1N1C[C@@H]2[C@H](C1)[C@H]2NCC(=O)N1C[C@@H](F)C[C@H]1C#N`, the concentration for half-maximal inhibition (IC50) against Prolyl endopeptidase and at Dipeptidyl peptidase 2 was > 10 µM throughout.
Turning to `N#Cc1ccc(N2C[C@@H]3[C@H](C2)[C@H]3NCC(=O)N2C[C@@H](F)C[C@H]2C#N)cc1`, the midpoint of inhibition against Dipeptidyl peptidase 2, the IC50, lay at 18.1 µM.
The same measure, in the same setting: then `N#Cc1ccc(N2C[C@@H]3[C@H](C2)[C@H]3NCC(=O)N2CC(F)(F)C[C@H]2C#N)nc1`, with 2.8 µM.
Turning to `N#C[C@@H]1C[C@H](F)CN1C(=O)CN[C@H]1[C@@H]2CN(c3ncccc3[N+](=O)[O-])C[C@@H]21`, the IC50 at Prolyl endopeptidase was > 10 µM; against Dipeptidyl peptidase 2, 6.42 µM.
Regarding `N#Cc1ccc(N2C[C@@H]3[C@H](C2)[C@H]3NCC(=O)N2C[C@@H](F)C[C@H]2C#N)cc1Cl`, on Dipeptidyl peptidase 2, half-maximal inhibition (IC50) was put at 0.907 µM.
Same read-out and setting: to `NCC[C@H](N)C(=O)N1CCCCC1` belongs 0.163 µM.
`N#Cc1cc(C(F)(F)F)ccc1N1C[C@@H]2[C@H](C1)[C@H]2NCC(=O)N1C[C@@H](F)C[C@H]1C#N`: the 50% inhibitory concentration (IC50) against Prolyl endopeptidase was > 100 µM; on Dipeptidyl peptidase 2, 4.33 µM.
Consider `N#C[C@@H]1C[C@H](F)CN1C(=O)CN[C@H]1[C@@H]2CN(c3nc4ccccc4s3)C[C@@H]21`, for which the concentration for half-maximal inhibition (IC50) against Prolyl endopeptidase is > 10 µM; against Dipeptidyl peptidase 2, 5.1 µM.
Taken in the same sequence, the figures for `N#Cc1ccc(N2C[C@@H]3[C@H](C2)[C@H]3NCC(=O)N2C[C@@H](F)C[C@H]2C#N)nc1` were > 100 µM and 11 µM.
As to `N#C[C@@H]1C[C@H](F)CN1C(=O)CN[C@H]1[C@@H]2CN(c3ccccn3)C[C@@H]21`, the half-inhibitory concentration (IC50) on Prolyl endopeptidase was 1.42 µM; in assay [1], > 10 µM; at Dipeptidyl peptidase 2 it was 10.8 µM.
In the case of `N#Cc1c(N2C[C@@H]3[C@H](C2)[C@H]3NCC(=O)N2C[C@@H](F)C[C@H]2C#N)cccc1C(F)(F)F`, the IC50 is > 10 µM on Prolyl endopeptidase and 1.3 µM at Dipeptidyl peptidase 2.
For the molecule `N#Cc1c(F)cccc1N1C[C@@H]2[C@H](C1)[C@H]2NCC(=O)N1C[C@@H](F)C[C@H]1C#N`, the IC50 against Dipeptidyl peptidase 8, on Prolyl endopeptidase and at Dipeptidyl peptidase 2 was > 10 µM throughout.
For the molecule `CNC(=O)c1ccc(N2C[C@@H]3[C@H](C2)[C@H]3NCC(=O)N2C[C@@H](F)C[C@H]2C#N)cc1`, in assay [1], the half-maximal inhibitory concentration (IC50) was > 10 µM.
As for `N#C[C@@H]1C[C@H](F)CN1C(=O)CN[C@H]1[C@@H]2CN(c3ccc([N+](=O)[O-])cn3)C[C@@H]21`, the values for the IC50 on Prolyl endopeptidase and on Dipeptidyl peptidase 2 were 8.5 µM and 13 µM, respectively.
For `N#Cc1c(Cl)cccc1N1C[C@@H]2[C@H](C1)[C@H]2NCC(=O)N1C[C@@H](F)C[C@H]1C#N`, the half-inhibitory concentration (IC50) against Dipeptidyl peptidase 8 was > 10 µM; in assay [1], > 10 µM; against Dipeptidyl peptidase 2, 0.096 µM.
As for `N#Cc1ccccc1N1C[C@@H]2[C@H](C1)[C@H]2NCC(=O)N1C[C@@H](F)C[C@H]1C#N`, the IC50 against Prolyl endopeptidase was > 10 µM; at Dipeptidyl peptidase 2 it was 0.406 µM.
In assay [1], `N[C@@H](CCCCNC(=O)OCc1ccc([N+](=O)[O-])cc1)C(=O)N1CCCC1` showed an IC50 of 0.839 µM.
In turn, `CCOC(=O)c1ccc(N2C[C@@H]3[C@H](C2)[C@H]3NCC(=O)N2C[C@@H](F)C[C@H]2C#N)cc1` came in with an IC50 on Dipeptidyl peptidase 2 of 9.88 µM.
Consider `N#Cc1c(F)cc(N2C[C@@H]3[C@H](C2)[C@H]3NCC(=O)N2C[C@@H](F)C[C@H]2C#N)cc1F`, for which the IC50 amounted to 9.7 µM against Prolyl endopeptidase and 10.9 µM on Dipeptidyl peptidase 2.
As to `N#Cc1ccc(N2C[C@@H]3[C@H](C2)[C@H]3NCC(=O)N2C[C@@H](F)C[C@H]2C#N)cc1F`, the IC50 against Prolyl endopeptidase was 9.94 µM; in assay [1], > 10 µM; against Dipeptidyl peptidase 2, 1.2 µM.
On Dipeptidyl peptidase 2, `N#Cc1ccc(N2C[C@@H]3[C@H](C2)[C@H]3NCC(=O)N2C[C@@H](F)C[C@H]2C#N)c(Cl)c1` showed an IC50 of 1 µM. This counts as single-digit micromolar.
In the case of `N#Cc1cccnc1N1C[C@@H]2[C@H](C1)[C@H]2NCC(=O)N1C[C@@H](F)C[C@H]1C#N`, the values for the IC50 (in assay [1]; against Dipeptidyl peptidase 2) were > 10 µM and 1.34 µM, respectively.
`N#C[C@@H]1C[C@H](F)CN1C(=O)CN[C@H]1[C@@H]2CN(c3ccc(C(=O)NC4CC4)cc3)C[C@@H]21`: the half-inhibitory concentration (IC50) in assay [1] was > 10 µM.
As for `N#C[C@@H]1C[C@H](F)CN1C(=O)CN[C@H]1[C@@H]2CN(c3ncccn3)C[C@@H]21`, the IC50 at Dipeptidyl peptidase 9 was > 100 µM; against Dipeptidyl peptidase 2 it was 16.5 µM.
As for `N#C[C@@H]1C[C@H](F)CN1C(=O)CN[C@H]1[C@@H]2CN(c3ccc(C(N)=O)cc3)C[C@@H]21`, the IC50 in assay [1] was > 10 µM; on Dipeptidyl peptidase 2, 21.8 µM.

For the origin of these results see ChEMBL document CHEMBL1155131, “Discovery of conformationally rigid 3-azabicyclo[3.1.0]hexane-derived dipeptidyl peptidase-IV inhibitors” (Bioorg Med Chem Lett, 2008).
